Experimental findings from the supplement of paper PMC4862054 are described below.

Conditions in all cases: 72 h
For assay [1], the system named is CAL-120. The essentials:
(§1)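 For viability, cells received 2.5 µl CellTiter-Blue for 2 h at 37 °C and fluorescence was read at 560/590 nm. Before this, breast cancer cell lines in 20 µl suspension had been incubated for 72 h on 384-well plates pre-loaded with compound dissolved in 5 µl medium. EC50 was obtained from a percent-inhibition dose-response fit censored at the highest concentration, after normalisation of each plate to vehicle and a positive kill control; rows with a zero drug sensitivity score were discarded.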

For assay [2], the system named is HCC1937. The essentials: as §1
The subject of assay [3] is MDA-MB-231. The essentials:
as §1

The subject of assay [4] is BT-474. The essentials:
(§2)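 The plates used were 384-well plates holding compound at 5 concentrations in 10-fold steps across a compound-specific 10,000-fold range, into which breast cancer cell lines were seeded in 20 µl suspension. Following 72 h incubation, CellTox Green fluorescence was read at 485/520 nm, and CellTiter-Glo luminescence was read after 10 min at room temperature. Normalisation on each plate used 0.1 % DMSO and a positive kill control. Dose-response curves gave the EC50, which was censored at the top concentration.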

For assay [5], the system named is CAL-51. The essentials:
as §2

The test system of assay [6] is MDA-MB-468. The method in brief: as §2

Structures are written as SMILES.

With `CCC1=C[C@@H]2CN(C1)Cc1c([nH]c3ccccc13)[C@@](C(=O)OC)(c1cc3c(cc1OC)N(C)[C@H]1[C@@](O)(C(=O)OC)[C@H](OC(C)=O)[C@]4(CC)C=CCN5CC[C@]31[C@@H]54)C2` [Vinorelbine], the figures for the “EC50, CellTiter-Blue viability” value in assay [1], in assay [2] and in assay [3] were 22.5 nM, 26.3 nM and 67.6 nM, respectively. The “EC50, CellTiter-Glo” value in assay [4] worked out at 76.3 nM; in assay [5] it was 118 nM; in assay [6], 26.7 nM.
